Here are results for three compounds from US11713338B2, “Cyclic peptides multimers targeting α-4-β-7 integrin” (priority 2016, dated 2023).

Structures are written as SMILES. pIC50: −log10 of the molar value. Like-named read-outs stand apart in the source and are kept apart here.

This experiment addresses T1, integrin α4β7 on α4β7+ memory T helper cells (Homo sapiens, UniProt P13612+P26010).
T1 construct: endogenous in cells
T1 sequence (P13612 34-1032): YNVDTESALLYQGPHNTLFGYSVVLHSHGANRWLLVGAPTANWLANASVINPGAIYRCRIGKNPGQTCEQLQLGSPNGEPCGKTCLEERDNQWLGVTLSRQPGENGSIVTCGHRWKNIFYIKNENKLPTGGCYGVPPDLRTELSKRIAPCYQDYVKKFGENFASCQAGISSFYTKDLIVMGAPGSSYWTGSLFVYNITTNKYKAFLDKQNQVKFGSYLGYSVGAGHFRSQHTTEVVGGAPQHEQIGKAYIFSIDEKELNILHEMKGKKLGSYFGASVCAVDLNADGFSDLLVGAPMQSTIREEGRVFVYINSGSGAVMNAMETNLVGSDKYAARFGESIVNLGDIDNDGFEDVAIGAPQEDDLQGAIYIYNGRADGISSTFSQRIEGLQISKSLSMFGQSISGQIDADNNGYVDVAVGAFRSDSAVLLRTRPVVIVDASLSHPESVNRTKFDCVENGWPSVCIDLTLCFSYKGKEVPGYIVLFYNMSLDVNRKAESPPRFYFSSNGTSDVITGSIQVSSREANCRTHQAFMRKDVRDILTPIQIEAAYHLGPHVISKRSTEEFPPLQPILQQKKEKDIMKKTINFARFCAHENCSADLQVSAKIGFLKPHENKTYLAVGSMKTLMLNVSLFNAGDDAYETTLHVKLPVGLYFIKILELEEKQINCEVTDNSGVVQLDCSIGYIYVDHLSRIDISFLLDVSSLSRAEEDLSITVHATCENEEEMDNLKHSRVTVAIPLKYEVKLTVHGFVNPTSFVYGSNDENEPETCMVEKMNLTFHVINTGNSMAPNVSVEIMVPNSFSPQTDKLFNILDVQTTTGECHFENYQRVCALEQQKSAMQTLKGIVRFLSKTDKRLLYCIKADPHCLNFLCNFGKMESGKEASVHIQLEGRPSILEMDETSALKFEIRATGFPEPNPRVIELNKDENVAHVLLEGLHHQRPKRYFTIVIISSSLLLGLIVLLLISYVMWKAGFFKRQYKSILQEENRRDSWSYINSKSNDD
T1 sequence (P26010 20-798): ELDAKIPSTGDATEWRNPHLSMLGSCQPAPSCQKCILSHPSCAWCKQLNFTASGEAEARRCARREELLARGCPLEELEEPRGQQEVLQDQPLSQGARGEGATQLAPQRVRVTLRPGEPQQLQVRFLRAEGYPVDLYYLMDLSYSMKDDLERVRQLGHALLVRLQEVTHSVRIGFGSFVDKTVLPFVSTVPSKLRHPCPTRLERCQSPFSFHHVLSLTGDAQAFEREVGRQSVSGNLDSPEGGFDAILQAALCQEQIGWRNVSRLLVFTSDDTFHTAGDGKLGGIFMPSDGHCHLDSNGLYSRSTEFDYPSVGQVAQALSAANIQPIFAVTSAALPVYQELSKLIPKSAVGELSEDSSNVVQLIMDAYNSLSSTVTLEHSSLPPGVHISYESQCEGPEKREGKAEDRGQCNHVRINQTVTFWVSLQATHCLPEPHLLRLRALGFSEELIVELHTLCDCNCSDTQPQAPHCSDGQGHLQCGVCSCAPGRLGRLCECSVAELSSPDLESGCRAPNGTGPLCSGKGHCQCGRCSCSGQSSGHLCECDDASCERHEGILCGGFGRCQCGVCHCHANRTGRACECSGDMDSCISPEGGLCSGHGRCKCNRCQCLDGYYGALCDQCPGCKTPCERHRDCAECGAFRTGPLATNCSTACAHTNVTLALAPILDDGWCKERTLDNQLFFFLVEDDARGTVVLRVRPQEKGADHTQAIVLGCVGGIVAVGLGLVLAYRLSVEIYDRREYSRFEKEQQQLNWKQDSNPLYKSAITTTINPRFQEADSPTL
Kind of experiment: MAdCAM-1 competition / receptor occupancy assay in human whole blood, α4β7-positive Th memory cells. As to conditions: human whole blood. The class given is cell-based. In outline: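 Human heparinised whole blood; saturating biotinylated rhMAdCAM-1-Fc or rhVCAM-1-Fc bound 1 h at RT, stained in buffer with 4 mM MnCl2, detected by streptavidin-APC flow cytometry on gated CD45+CD3+CD4+CD45RO+CD49d+ β7+ or β7-lo cells. Occupancy = 100−((% ligand-positive cells with compound/% ligand-positive cells DMSO)*100).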

[1] abbreviates: inhibition of MAdCAM-1 binding to α4β7-positive Th memory cells, FACS, read-out: MADCAM FACS α4β7 Th mem.

For `CC(C)C[C@@H]1NC(=O)C[C@H](CCCCN)N(C)C(=O)[C@H](CCCCNC(=O)CCCCCCCC(=O)NCCCC[C@@H]2NC(=O)[C@@H]3CCCN3[C@H](C(=O)NC(C)(C)C)[C@H](C)NC(=O)[C@H]([C@@H](C)O)NC(=O)[C@H](CC(=O)O)NC(=O)[C@H](CC(C)C)NC(=O)C[C@H](CCCCN)N(C)C2=O)NC(=O)[C@@H]2CCCN2[C@H](C(=O)NC(C)(C)C)[C@H](C)NC(=O)[C@H]([C@@H](C)O)NC(=O)[C@H](CC(=O)O)NC1=O` [Compound 533], under setting [1], the pIC50 is 7.34.

As to `CC(C)C[C@@H]1NC(=O)C[C@H](CCCCN)N(C)C(=O)[C@H](CCCCNC(=O)c2ccccc2-c2ccccc2C(=O)NCCCC[C@@H]2NC(=O)[C@@H]3CCCN3[C@H](C(=O)NC(C)(C)C)[C@H](C)NC(=O)[C@H]([C@@H](C)O)NC(=O)[C@H](CC(=O)O)NC(=O)[C@H](CC(C)C)NC(=O)C[C@H](CCCCN)N(C)C2=O)NC(=O)[C@@H]2CCCN2[C@H](C(=O)NC(C)(C)C)[C@H](C)NC(=O)[C@H]([C@@H](C)O)NC(=O)[C@H](CC(=O)O)NC1=O` [Compound 535], the pIC50 (FIG. 7, read-out: IC50, MAdCAM-1 competition on α4β7-positive primary cells) is 7.12 and the pIC50 under setting [1] is 7.11.

Turning to `CC(C)C[C@@H]1NC(=O)C[C@H](CCCCN)N(C)C(=O)[C@H](CCCCNC(=O)CCOCCOCCOCCOCCOCCOCCOCCC(=O)NCCCC[C@@H]2NC(=O)[C@@H]3CCCN3[C@H](C(=O)NC(C)(C)C)[C@H](C)NC(=O)[C@H]([C@@H](C)O)NC(=O)[C@H](CC(=O)O)NC(=O)[C@H](CC(C)C)NC(=O)C[C@H](CCCCN)N(C)C2=O)NC(=O)[C@@H]2CCCN2[C@H](C(=O)NC(C)(C)C)[C@H](C)NC(=O)[C@H]([C@@H](C)O)NC(=O)[C@H](CC(=O)O)NC1=O` [Compound 536], under setting [1], the pIC50 was 7.12.
